Assay results from paper PMC6941357, “An in vitro toolbox to accelerate anti-malarial drug discovery and development” (Malaria Journal, 2020).
Several values for one entry are separate records, joined by “and”; a condition that tells them apart may be missing. Identical values can stand only once.

How the values were obtained:
in vitro = settings: human, microsomes
Procedure: The metabolic stability assay was adapted from a previously published method. […] Reactions were quenched at 2, 5, 15, 30 and 60 min by the addition of acetonitrile containing 150 ng/mL diazepam as internal standard. Control samples (containing no cofactor) were included (quenched at 2, 30 and 60 min) to monitor degradation in the absence of cofactor. Concentrations were determined by LC–MS (Additional file 1: Table S2) by comparison to the response for a single point calibration standard prepared in quenched microsomal matrix.
Test compound concentration versus time data were fit using an exponential decay function to determine the first-order rate constant for substrate depletion. Where deviation from first-order kinetics was evident, only the initial linear portion of the logarithmic profile was utilized to determine the initial degradation rate constant (k, min^−1). Each substrate depletion rate constant was then used to calculate the in vitro intrinsic clearance value (CLint, in vitro, µL/min/mg protein) using Eq.
Unbound in vitro CLint values were obtained by dividing the measured CLint by the measured fu in microsomes.

human liver microsomes = settings: microsomal protein 0.5 mg/mL; ref [23]–[28] of Additional file 1; cited from earlier work

CCOc1ccc(NC(C)=O)cc1 [phenacetin]
microsomal CLint at 1 µM (in vitro; pH 7.4, Mean CLint): 21.4 µL/min/mg | microsomal CLint at 1 µM (in vitro; pH 7.4, Range HLM CLint): 13.3 to 31.1 µL/min/mg | Literature CLint (human liver microsomes): 27 µL/min/mg and 22.2 µL/min/mg
